The values below come from US9962351B2, “Small molecule substance for improving sensitivity of bacteria to antibiotics” (priority 2012, dated 2018).

Assay [1] deals with Escherichia coli K12 BW25113. Briefly: MIC by double dilution method, initial bacteria. The format is cell-based. The note with it: for MIC: Escherichia coli, BW25113, read-out: MIC0. The protocol:
(§1) Escherichia coli is a bacterium that is most commonly found in the gut of human and animal. It mainly parasitizes in the intestines, and accounts for about 1% of the intestine bacteria. Minimum inhibitory concentration (MIC) of Escherichia coli K12 BW25113 for ten kinds of antibiotics was detected with double dilution method. Escherichia coli K12 BW25113 of 10^5 colony forming unit/ml was cultured respectively in Luria-Bertani (LB) liquid medium separately with each of ten antibiotics at the concentration of ½ MIC at 37° C., and was serially passaged 10 times, so that the MIC of single colony was determined.

Assay [2] concerns antibiotic-resistant Escherichia coli (passaged K12 BW25113). Briefly: MIC of single colony after 10 serial passages with antibiotic at 1/2 MIC. The format is cell-based. The following applies: for MIC: Escherichia coli, BW25113, read-out: MIC10; for MIC10/MIC0: ratio of MIC after to before passage. As for the experimental part: as §1
Assay [3] deals with ampicillin-resistant Escherichia coli (AMP-R). Format: cell-based. As for the experimental part: Bacterium cultures of 20 mL were collected and centrifuged at 8,000 rpm for 5 minutes. The bacterial pellets were washed with equal volume of 0.85% saline solution, suspended in M9 medium containing 10 mM sodium acetate and then adjusted to OD600 of 0.5. […] These mixtures were cultured in a shaker at 200 rpm at 37° C. for 4 h. Then 100 μL of bacterial suspension was used for bacterial plate counting.
To investigate the effect of antibiotic dose on the sensitivity of bacteria to antibiotics by glutamine, 20 mM glutamine and 20, 40, 80, 160, 240, 320 and 400 μg/mL ampicillin were used to treat ampicillin-resistant Escherichia coli for 4 hours, and then bacterial plate counting was conducted. The survival rates of bacteria with and without glutamine were compared at the same antibiotic concentration.
To investigate the effect of exposure time on the killing efficiency, the viable counts of bacteria were counted during 1-8 hours after spiked with 20 mM glutamine and 160 μg/mL ampicillin.
To investigate the effect of glutamine concentration on killing efficiency and the optimum bactericidal concentrations, different concentrations of glutamine were added to 160 μg/mL ampicillin. The number of live bacteria was counted after 4 hours. The survival rate was calculated according to the formula below: viable counts at different concentration of glutamine/viable counts without glutamine×100%.
Single clone of ampicillin-resistant Escherichia coli was selected and inoculated in 100 mL LB medium and cultured at 200 rpm at 37° C. for 16 hours. Bacterial suspension of 20 mL was collected and centrifuged at 8,000 rpm for 5 min. The resulting bacterial pellets were washed with equal volume of 0.85% saline solution, suspended in M9 medium containing 10 mM sodium acetate and then adjusted to […] of 0.5. Aliquots of 5 mL bacterial cells were transferred to test tubes for further application.
The sample was added with 160 μg/mL ampicillin and 0-20 Mm glucose, then cultured in a shaker at 200 rpm at 37° C. for 4 hours. The cell number was counted and survival rate was calculated. […]

Assay [4] deals with Escherichia coli K12 BW25113 (control bacteria). In words: Viable counts and survival rate of control bacteria. The format is cell-based. The note with it: 160 μg/mL ampicillin, without or with 20 mM glutamine, 4 hours. The protocol: The viable counts and survival rate of bacteria were calculated after added with 20 mM glutamine and 160 μg/mL ampicillin for 4 hours.
The viable counts and survival rate of bacteria were calculated after added with 20 mM glutamine and 4 kinds of penicillins (does for control bacteria were: ampicillin 25 μg/mL, penicillin G 200 μg/mL, amoxicillin 20 μg/mL, carbenicillin 100 μg/mL; does for antibiotic resistant bacteria were: ampicillin 320 μg/mL, penicillin G 2560 μg/mL, amoxicillin 512 μg/mL, carbenicillin 320 μg/mL) for 4 hours.
The viable counts and survival rate of bacteria were calculated after added with 20 mM glutamine and antibiotics at the concentration of 8 times of MIC for 4 hours.

Assay [5] concerns ampicillin-resistant Escherichia coli biofilm. Briefly: Biofilm on PE-50 catheters in vitro, survival rate. The format is cell-based. The following applies: 6 hours. As for the experimental part:
(§2) Single clone of ampicillin-resistant Escherichia coli was selected and incubated in LB medium overnight, then transferred into 2 mL fresh LB medium according to the proportion of 1:200 dilutions and transferred to 6 mm ultraviolet sterilized PE-50 catheters. The catheters were inoculated in 1 mL LB at 37 for 24 h. The culture medium was changed every 24 hours for 3 days. The biofilm of ampicillin-resistant bacteria in PE50 catheters were washed with 1 mL sterile phosphate-buffered saline five times to remove loosely adherent cells, and then transferred to 1.5 mL EP tubes.
The test was divided into six groups: saline solution control, 20 mM glutamine, 160 μg/mL ampicillin, 160 μg/mL ampicillin plus 20 mM glutamine, 160 μg/mL ampicillin plus 20 mM glucose, 160 μg/mL ampicillin plus 20 mM glutamine and 20 mM glucose. The catheters were cultured in a shaker at 200 rpm at 37 for 6 hours. The bacterial biofilm was removed from catheters with sonication for 10 minutes. Serial dilutions and spot-plating were performed to determine the cell number. The bacterial survival rate was calculated as: viable counts in treatment group/viable counts in control group×100%.

The test system is the same in assay [6]. In words: Mouse urinary tract catheter biofilm model, bacterial survival rate in biofilm. Format: in vivo. The following applies: mice, tail intravenous injection twice-daily for 3 days; glutamine 100 mg kg−1, glucose 100 mg kg−1, ampicillin 320 mg kg−1 as present. The protocol:
as §2
In vivo experiments in mice, female mice (5 weeks, weighing 18-20 g) received surgical implantation in the urinary tract of PESO catheter tubes. The mice were randomly divided into six groups in 48 h after the surgery, five each group. The six groups included treatment with saline (group 1), 100 mg kg^−1 glutamine (group 2), 320 mg kg^−1 ampicillin (group 3), 100 mg kg^−1 glutamine plus 320 mg kg^−1 ampicillin (group 4), 100 mg kg^−1 glucose plus 320 mg kg^−1 ampicillin (group 5), and 100 mg kg^−1 glutamine and 100 mg kg^−1 glucose plus 320 mg kg^−1 ampicillin (group 6) by tail intravenous injection for 3 days, twice-daily. Catheter tubes were extracted in 24 hours after the last treatment. […] The survival rate was calculated as: viable counts in treatment group/viable counts in control group×100%.

The subject of assay [7] is antibiotic-resistant bacteria in kidneys. In words: Mouse urinary tract infection model, bacterial content in kidneys. The note with it: mice, tail i.v. twice-daily for 3 days; glutamine 100 mg kg−1, glucose 100 mg kg−1, ampicillin 320 mg kg−1 as present; saline group 16750. Format: in vivo. As for the experimental part: In vivo experiments in mice, female mice (5 weeks, weighing 18-20 g) received surgical implantation in the urinary tract of PESO catheter tubes. The mice were randomly divided into six groups in 48 h after the surgery, five each group. The six groups included treatment with saline (group 1), 100 mg kg^−1 glutamine (group 2), 320 mg kg^−1 ampicillin (group 3), 100 mg kg^−1 glutamine plus 320 mg kg^−1 ampicillin (group 4), 100 mg kg^−1 glucose plus 320 mg kg^−1 ampicillin (group 5), and 100 mg kg^−1 glutamine and 100 mg kg^−1 glucose plus 320 mg kg^−1 ampicillin (group 6) by tail intravenous injection for 3 days, twice-daily. Catheter tubes were extracted in 24 hours after the last treatment. To dislodge biofilm cells, catheters were suspended in saline solution with ultrasonic. Serial dilutions and spot-plating were performed to determine the bacterial survival rate in biofilm. The survival rate was calculated as: viable counts in treatment group/viable counts in control group×100%.
Meanwhile, kidneys of mice were homogeneous with appropriate amount of saline. Bacterial content in kidneys was determined by plate counting method.

Converted amounts (≈) assume the structure as drawn. Read-outs that look alike come from different tables or passages of the source.

Turning to `NC[C@H]1O[C@H](O[C@H]2[C@H](O)[C@@H](O[C@H]3O[C@H](CO)[C@@H](O)[C@H](N)[C@H]3O)[C@H](N)C[C@@H]2N)[C@H](O)[C@@H](O)[C@@H]1O` [KAN, kanamycin], the MIC in assay [1] is 6.25 µg/mL (≈ 12.9 µM); in assay [2] it was 400 µg/mL. Besides, in assay [2], the MIC10/MIC0 is 64.
On the same counts, the results for `CC[C@H]1OC(=O)[C@H](C)[C@@H](O[C@H]2C[C@@](C)(OC)[C@@H](O)[C@H](C)O2)[C@H](C)[C@@H](O[C@@H]2O[C@H](C)C[C@H](N(C)C)[C@H]2O)[C@](C)(O)C[C@@H](C)C(=O)[C@H](C)[C@@H](O)[C@]1(C)O` [ER, erythromycin] are 50 µg/mL (≈ 68.1 µM), 3200 µg/mL and 64.
The like results for `[H]/N=C(/N)N[C@H]1[C@H](O)[C@@H](O)[C@H](O[C@@H]2O[C@@H](C)[C@](O)(C=O)[C@H]2O[C@@H]2O[C@@H](CO)[C@H](O)[C@@H](O)[C@@H]2NC)[C@@H](N/C(N)=N\[H])[C@@H]1O` [SM, streptomycin] were, in that order, 6.25 µg/mL (≈ 10.7 µM), 400 µg/mL and 64.
As to gentamicin, the MIC0 in assay [1] (before passage) is 1.25 µg/mL. The MIC10 in assay [2] (after 10 serial passages in LB with the respective antibiotic at 1/2 MIC, 37° C.) came out at 80 µg/mL. Also, the MIC10/MIC0 in assay [2] is 64.
Turning to `CCn1cc(C(=O)O)c(=O)c2ccc(C)nc21` [NA, nalidixic acid], the MIC stood at 5 µg/mL (≈ 21.5 µM) in assay [1] and 320 µg/mL in assay [2]. Moreover, the MIC10/MIC0 in assay [2] worked out at 64.
As for `CC(C)(O/N=C(\C(=O)N[C@@H]1C(=O)N2C(C(=O)[O-])=C(C[n+]3ccccc3)CS[C@H]12)c1csc(N)n1)C(=O)O` [CAZ, ceftazidime], the MIC stood at 0.125 µg/mL (≈ 0.229 µM) in assay [1] and 8 µg/mL in assay [2].
In the case of `O=C(N[C@H](CO)[C@H](O)c1ccc([N+](=O)[O-])cc1)C(Cl)Cl` [CAP, chloramphenicol], the MIC was 6.8 µg/mL (≈ 21 µM) in assay [1] and 435 µg/mL in assay [2]. In assay [2], the MIC10/MIC0 was 64.
The like results for `CNC1CCCN(c2c(F)cc3c(=O)c(C(=O)O)cn(C4CC4)c3c2OC)C1` (stereo not drawn) [BLFX, balofloxacin] were, in that order, 0.25 µg/mL (≈ 0.642 µM), 16 µg/mL and 64.
Turning to `CC1(C)S[C@@H]2[C@H](NC(=O)[C@H](N)c3ccccc3)C(=O)N2[C@H]1C(=O)O` [ampicillin], the values for the MIC in assay [1] and in assay [2] were 6.25 µg/mL (≈ 17.9 µM) and 400 µg/mL, respectively. Also, the MIC10/MIC0 in assay [2] worked out at 64. The survival rate in assay [3] (20 μg/mL ampicillin, without or with 20 mM glutamine, 4 hours) is 99.81%; in assay [3] (40 μg/mL ampicillin, without or with 20 mM glutamine, 4 hours), 97.27%; in assay [3] (80 μg/mL ampicillin, without or with 20 mM glutamine, 4 hours) it was 95.55%; in assay [3] (160 μg/mL ampicillin without glutamine, 7 hours), 74%; in assay [3] (160 μg/mL ampicillin without glutamine, after 8 hours), 66.19%; in assay [3] (160 μg/mL ampicillin, without glucose or with increasing glucose (0-20 Mm), 4 hours), 94.33%. Moreover, the survival rate is 94.33% in assay [3] (160 μg/mL ampicillin, without glutamine or with increasing glutamine concentration, 4 hours); 93.72% in assay [3] (160 μg/mL ampicillin, without or with 20 mM glutamine, 4 hours); 86.72% in assay [3] (240 μg/mL ampicillin, without or with 20 mM glutamine, 4 hours); 83.51% in assay [3] (320 μg/mL ampicillin, without or with 20 mM glutamine, 4 hours); 67.15% in assay [3] (400 μg/mL ampicillin, without or with 20 mM glutamine, 4 hours); 74.22% in assay [4]. Further, the “viable counts of bacteria” value in assay [3] (160 μg/mL ampicillin without glutamine, during 1-4 hours) is “remained unchanged”. In addition, the “elimination of biofilm by single agent” value in assay [5] (20 mM glutamine or 160 μg/mL ampicillin alone) is reported as “did not eliminate the antibiotic-resistant bacterium biofilm”. Also, in assay [5] (20 mM glutamine, 160 μg/mL ampicillin, 20 mM glucose as present), the “bacterial survival rate in biofilm (treatment group/saline control)” value was found to be 92.84%. Besides, the “bacterial survival rate in catheter biofilm in comparison with saline control” value in assay [6] is 76.81%. Besides, the “bacterial content in kidneys” value in assay [7] is recorded as 9129 cell/g.
`CN(C)[C@@H]1C(O)=C(C(N)=O)C(=O)[C@@]2(O)C(O)=C3C(=O)c4c(O)cccc4[C@@](C)(O)[C@H]3C[C@@H]12` [TET, tetracycline]: the values for the MIC in assay [1] and in assay [2] were 3.12 µg/mL (≈ 7.03 µM) and 200 µg/mL, respectively.
